Measured values from patent US8058309B2, “Protein kinase modulators and therapeutic uses thereof” (Novotyr Therapeutics Ltd., priority 2006, dated 2011).
“Also recorded” adds a separate entry of the source. Where two headings read alike, the source gives them in different places.

Legend:
MDA MB 468 = test: Proliferation assay MDA MB 468; format: cell-based; details: Homo sapiens, Breast, 72 hours
Experimental: (§1) Various cancer cell lines (listed in table 1) were plated at a density of 1000-5000 cells/well in 96-well plates in 90111 growth medium containing 10% FCS, 100 units/ml penicillin and 100 μg/ml streptomycin. Inhibitors were added a day later in 10 μl of 1% DMSO in DDW to obtain final concentrations of 0, 0.1, 0.3, 1, 3, and 10 μM. The final concentration of DMSO (0.1% DMSO) was kept constant in all samples. Medium with inhibitors was refreshed a day and two days later. Following exposure of the cells to the inhibitors for 72 hours at 37° C., the cells were fixed in 0.5% gluteraldehyde in medium for 10 min, washed three times with DDW, once with 0.1M sodium borate buffer pH 8.5 and stained with 1% methylene blue dissolved in 0.1M borate buffer solution for 60 min. Excess dye was washed out and cell-bound dye was eluted with 200 μl/well of 0.1 M HCl. The optical density value was read at 620 nm in ELISA plate reader. The data was analyzed in Microsoft Excel, using the vehicle control as 100% proliferation. The assays were performed in triplicates. The values in table 1 represent IC50 values derived from the dose-dependent growth curves obtained.
(§2) Compounds 6, 7, 8, and 9 were tested for their inhibitory potential in cell proliferation assay. In this assay cells were exposed to increasing concentrations of the molecules (at 0.1% DMSO in all wells) a day after seeding. Medium and inhibitors were refreshed every day, and following three days of treatment, cells were fixed and stained with methylene-Blue. IC50 values were determined from the curves of the optical density against compound concentration. The assay was performed in triplicates.

LNCaP = test: Proliferation assay LNCaP; format: cell-based; details: Homo sapiens, Prostate, 72 hours
Experimental: as §1, §2

B16 = test: Clonogenic assay B16; format: cell-based; details: Mus musculus, Melanoma
Experimental: (§3) Various cancer cells (listed in table 1) were seeded at a very low concentration (19 cells/well in 96-well plates or 63 cells/well in 24-well plates) in growth medium. A day later medium was replaced with growth medium containing various concentrations of inhibitors in a final concentration of 0.1% DMSO. The inhibitor-containing medium was refreshed three times a week. Following approximately two weeks cells were fixed by adding Gluteraldehide (0.5% final concentration) for 10 min, washed three time with DDW, once with borate buffer 0.1M and stained for 1 hour with 1% Methylene Blue in borate buffer 0.1M. Access stain was washed with water, and following drying colonies were counted. Alternatively, stain was extracted by 0.1N HCl for 1 hour and absorbance at 620 nm was measured by ELISA Reader. The assays were performed in triplicates. The values in table 1 represent IC50 values derived from the dose-dependent growth curves obtained.

U87MG = test: Proliferation assay U87MG; format: cell-based; details: Homo sapiens, U-87 MG, Glioma, 72 hours
Experimental: as §1, §2

PC3-MM2 = test: Proliferation assay PC3-MM2; format: cell-based; details: Homo sapiens, PC3MM2, Prostate, 72 hours
Experimental: as §1, §2

HT29 = test: Proliferation assay HT29; format: cell-based; details: Homo sapiens, HT-29, Colon, 72 hours
Experimental: as §1, §2

PC3 [1] = test: Proliferation assay PC3; format: cell-based, human; details: Prostate
Experimental: as §1, §2

SKOV-3 = test: Proliferation assay SKOV-3; format: cell-based; details: Homo sapiens, SK-OV-3, Ovarian, 72 hours
Experimental: as §1, §2

A2780 = test: Proliferation assay A2780; format: cell-based; details: Homo sapiens, Ovarian, 72 hours
Experimental: as §1, §2

T47D = test: Proliferation assay T47D; format: cell-based; details: Homo sapiens, Breast, 72 hours
Experimental: as §1, §2

PC-10 = test: Proliferation assay PC-10; format: cell-based; details: Homo sapiens, PC10, Lung, 72 hours
Experimental: as §1, §2

PC3 [2] = test: Clonogenic assay PC3; format: cell-based; details: Homo sapiens, PC-3, Prostate
Experimental: as §3

PANC1 = test: Proliferation assay PANC1; format: cell-based; details: Homo sapiens, PANC-1, Pancreatic, 72 hours
Experimental: as §1, §2

MDA MB 435 = test: Proliferation assay MDA MB 435; format: cell-based; details: Homo sapiens, Breast, 72 hours
Experimental: as §1, §2

MDA MB 231 = test: Proliferation assay MDA MB 231; format: cell-based; details: Homo sapiens, Breast, 72 hours
Experimental: as §1, §2

YURIF = test: Proliferation assay YURIF; format: cell-based; details: Homo sapiens
Experimental: as §1, §2

MO59J = test: Proliferation assay MO59J; format: cell-based; details: Glioma, 72 hours
Experimental: as §1, §2

U266 = test: Proliferation assay U266; format: cell-based; details: Homo sapiens, U-266, Myeloma, 72 hours
Experimental: as §1, §2

MCF-7 = test: Proliferation assay MCF-7; format: cell-based; details: Homo sapiens, MCF7, Breast, 72 hours
Experimental: as §1, §2

IRS1 = IRS1 Ser-phosphorylation in YUMAC cells; format: cell-based, human; details: metastatic melanoma YUMAC cells
Experimental: (§4) In addition, lysates were prepared from cells exposed to inhibitors at various concentrations for 24 hours in the presence or the absence of FCS without stimulation. Lysate preparation and western blot were the same as described above. Apoptosis was detected by immunoblotting with rabbit anti-PARP antibodies.

[3] = test system: metastatic melanoma YUMAC cells; test: Apoptosis (cleaved PARP) in YUMAC cells; format: cell-based, human; details: 24 hours of exposure, 3 μM
Experimental: as §4

[4] = Melanoma, YURIF, 72 hours, read-out: Proliferation assay IC50
[5] = Table 4, 72 hours incubation, read-out: Inhibition of human metastatic melanoma cells, YURIF IC50

`N#C/C(=C\c1cc(O)c(O)c(Br)c1)C(=S)NCc1cc(O)c(O)c(Br)c1` [Compound 6] was tested, and the IC50 (MDA MB 468) was over 10000 nM, the IC50 (LNCaP) was over 10000 nM and the IC50 (B16) was 800 nM. The IC50 (U87MG) was over 10000 nM, the IC50 (PC3-MM2) was over 10000 nM and the IC50 (HT29) was over 10000 nM. For the same compound, the IC50 (PC3 [1]; Homo sapiens, PC-3, 72 h) was over 10000 nM, the IC50 (SKOV-3) was over 10000 nM and the IC50 (A2780) was 6800 nM. The IC50 (T47D) was over 10000 nM, the IC50 (PC-10) was over 10000 nM and the IC50 (PC3 [2]) was 700 nM. It also gave an IC50 (PANC1) of over 10000 nM, an IC50 (MDA MB 435) of over 10000 nM and an IC50 (MDA MB 231) of over 10000 nM. It also gave an IC50 (YURIF; [4]) of over 10000 nM, an IC50 (YURIF; [5]) of over 10000 nM and an IC50 (MO59J) of 8300 nM. It also gave an IC50 (U266) of 9800 nM and an IC50 (MCF-7) of 2100 nM.

For `N#C/C(=C\c1cc(O)c(O)c(Br)c1)C(=S)NCc1cc(O)c(O)c(O)c1` [Compound 7], the IC50 (MDA MB 468) was over 10000 nM, the IC50 (LNCaP) was over 10000 nM and the “IRS1 Ser-phosphorylation” value (IRS1) was “detected”. It also gave an IC50 (B16) of 400 nM, an IC50 (U87MG) of 6900 nM and an IC50 (PC3-MM2) of 2600 nM. It also gave an IC50 (HT29) of 6800 nM, an IC50 (PC3 [1]; Homo sapiens, PC-3, 72 h) of 2800 nM and an IC50 (PC3 [1]; 72 hours) of 3900 nM. It also gave an IC50 (SKOV-3) of 5300 nM, an IC50 (A2780) of 600 nM and an IC50 (T47D) of 2100 nM. For the same compound, the IC50 (PC-10) was 5200 nM, the IC50 (PC3 [2]) was 4200 nM and the IC50 (PANC1) was over 10000 nM. For the same compound, the IC50 (MDA MB 435) was 2700 nM, the IC50 (MDA MB 231) was 6300 nM and the IC50 (YURIF; [4]) was 1400 nM. The IC50 (YURIF; [5]) was 1400 nM, the IC50 (MO59J) was 2100 nM and the IC50 (U266) was 800 nM. The “Cleavage of PARP (apoptosis)” value [3] was “detected” and the IC50 (MCF-7) was 4800 nM.

With `Oc1cc(CNC(=S)/C=C/c2cc(O)c(O)c(Br)c2)cc(O)c1O` [Compound 9] the IC50 (MDA MB 468) was 7200 nM, the IC50 (LNCaP) was 4700 nM and the “IRS1 Ser-phosphorylation” value (IRS1) was “trigger IRS1-ser phosphorylation; also recorded: detected”. The IC50 (U87MG) was 6600 nM, the IC50 (PC3-MM2) was 6900 nM and the IC50 (HT29) was 1500 nM. It also gave an IC50 (PC3 [1]; Homo sapiens, PC-3, 72 h) of 2700 nM, an IC50 (PC3 [1]; 72 hours) of 2000 nM and an IC50 (SKOV-3) of 4300 nM. It also gave an IC50 (A2780) of 400 nM, an IC50 (T47D) of 1600 nM and an IC50 (PC-10) of 3800 nM. For the same compound, the IC50 (PC3 [2]) was 1200 nM, the IC50 (PANC1) was over 10000 nM and the IC50 (MDA MB 435) was 1500 nM. It also gave an IC50 (MDA MB 231) of over 10000 nM, an IC50 (YURIF; [4]) of 700 nM and an IC50 (YURIF; [5]) of 650 nM. For the same compound, the IC50 (MO59J) was 900 nM, the IC50 (U266) was 900 nM and the “Cleavage of PARP (apoptosis)” value [3] was “detected”. It also gave an IC50 (MCF-7) of 2500 nM.

With `N#C/C(=C\c1cc(O)c(O)c(I)c1)C(=S)NCc1cc(O)c(O)c(O)c1` [Compound 8] the IC50 (MDA MB 468) was 5800 nM, the IC50 (LNCaP) was 7700 nM and the “IRS1 Ser-phosphorylation” value (IRS1) was “trigger IRS1-ser phosphorylation; also recorded: detected”. It also gave an IC50 (B16) of 400 nM, an IC50 (U87MG) of 2400 nM and an IC50 (PC3-MM2) of 2100 nM. For the same compound, the IC50 (HT29) was 6100 nM, the IC50 (PC3 [1]; Homo sapiens, PC-3, 72 h) was 4600 nM and the IC50 (PC3 [1]; 72 hours) was 3600 nM. It also gave an IC50 (SKOV-3) of 3500 nM, an IC50 (A2780) of 600 nM and an IC50 (T47D) of 2500 nM. It also gave an IC50 (PC-10) of 5800 nM, an IC50 (PC3 [2]) of 1000 nM and an IC50 (PANC1) of over 10000 nM. The IC50 (MDA MB 435) was 2100 nM, the IC50 (MDA MB 231) was 7400 nM and the IC50 (YURIF; [4]) was 1600 nM. It also gave an IC50 (YURIF; [5]) of 1600 nM, an IC50 (MO59J) of 1600 nM and an IC50 (U266) of 800 nM. The “Cleavage of PARP (apoptosis)” value [3] was “detected” and the IC50 (MCF-7) was 2800 nM.
